Test results from patent US10456434B2, “Extracts obtained from cell line cultures from plants belonging to the Oleaceae family (e.g. Syringa vulgaris), their preparation and use” (CRODA ITALIANA S. P. A., priority 2005, dated 2019).

What was measured:
[1] = Superoxide anion chemiluminescent assay (hypoxanthine/xanthine oxidase); format: biochemical; details: mean of 6 independent assays
From the text: (§1) The superoxide anion has been measured by a chemiluminescent assay based on the hypoxanthine (HPX)/xanthine oxidase (XOD) reaction using the Lumimax Superoxide Anion Detection Kit (Stratagene, La Jolla, Calif., USA) and following the manufacturer's instructions. Hydroxyl radical scavenger activity has been measured by means of the Fenton reaction for the production of hydroxyl radicals and chemiluminescent dosage (using a Victor^3 chemiluminometer, Wallac, Finland) with luminol. Peroxynitrite ions have been determined by means of dosage with a spontaneous generator of peroxynitrites (3-morpholinosidnonimine hydrochloride; SIN-1) and a stable reagent for the nitroxyl ions (2-(4-carboxyphenyl)-4,4,5,5-tetramethylimidazoline-1-oxyl-3-oxide potassium salt PTIO spin trap) then dosed by means of electron spin resonance (ESR) using a. Nippon Denshi JES-FR30.
(§2) Extract 1 and Extract 2 listed in Table are derived from Syringa vulgaris cell cultures. […] The results are expressed as the concentration inhibiting 50% of activity (IC50). The values reported are the means of 6 independent assays.

[2] = Peroxynitrite assay (SIN-1, PTIO spin trap, ESR); format: biochemical; details: mean of 6 independent assays
From the text: as §1, §2

[3] = Fe2+ induced lipid peroxidation (thiobarbituric acid); format: biochemical; details: mean of 6 independent assays
From the text: as §1, with “Syringa vulgaris Extracts 1 and 2, prepared as described in examples 1 and 2, have been used to assess in vitro antioxidant action with specific oxygen radical generating systems such as the superoxide anion (O2^−), the hydroxyl radical (HO), the peroxynitrite radical (ONOO^−) and the inhibition of lipid peroxidation. The” for “The”, “JES-FR30. […].” for “JES-FR30.”
Extract 1 and Extract 2 listed in Table are derived from Syringa vulgaris cell cultures. In said extracts, verbascoside is present at 0.82% and 35% by weight respectively. […]

A549 cells = test: Oxidative stress (ROS, DCF fluorescence) in A549 cell cultures; format: cell-based, human; details: 20 mM, A549, galactose oxidative stress
Experimental: 10×10^5 A549 cells (ATCC-CCL195) have been seeded into wells with 3 ml of DMEM/medium (HAM'S F12K) with 10% FCS and incubated at 37° C. in a 5% CO2, water vapour saturated atmosphere. After 24 hours the culture medium is replaced by medium supplemented with 5.55 mM galactose, which is left in contact with the cells for 20 hours. The medium is once again replaced with medium containing galactose in the presence or absence of the test compound. After 5 hours, quantitative measurement of the ROSs is performed by washing the cells with phosphate buffer and then incubating them with 30 μM DCF-DA in buffer solution. At the end of a 15 minute incubation, excess DCF-DA is removed from the cells by washing, prior to measuring the fluorescence emitted.
Antioxidant activity measurements are performed using a (Hitachi F3010) spectrophotometer with excitation at 488 nm and measuring emission at 525 nm, and values are expressed in pmoles, by extrapolation from the calibration curve constructed using known quantities of DCF, in relation to total cellular protein. Values are thus expressed in % ages with respect to the ROS, content of the cells not subjected to oxidative stress, to which are assigned a value of 100.
Syringa vulgaris Extracts 1 and 2 and ascorbic acid have been dissolved in phosphate buffer.

- Superoxide radical (IC50) [1]: 3.1 µg/mL
- Peroxynitrite radical (IC50) [2]: 1.6 µg/mL
- Lipid peroxidation (IC50) [3]: 7.4 µg/mL
SMILES: C[C@@H]1O[C@@H](O[C@@H]2[C@@H](O)[C@H](OCCc3ccc(O)c(O)c3)O[C@H](CO)[C@H]2OC(=O)/C=C/c2ccc(O)c(O)c2)[C@H](O)[C@H](O)[C@H]1O [Verbascoside, b-(3,4-dihydroxyphenyl)-ethyl-O-α-L-ramnopyranosyl (1″-3′)-b-D-(4′-O-caffeoil)-glucopyranoside]
- ROS level (%) (A549 cells): 85 ± 7 %
